Measured values as given in patent publication US7687083B2, “Pharmaceutical compositions comprising old man's beard (Usnea barbata) and St. John's wort (Hypericum perforatum) and their use” (Universitatsklinikum Freiburg, priority 2004, dated 2010).
≈ marks a conversion by molar mass, not a printed value.

Experiments:
[1] = UV erythema test; assay type: in vivo, healthy test persons; details: 1.5 times MED UVB, applied in Finn chambers for 24 hours; FIG. 5
Experimental: The minimal erythema dose for UVB was determined in the case of seven healthy test persons. Thereafter, test fields on the back were exposed to 1.5 times the minimal erythema dose (MED). The test substances were applied in Finn chambers for 24 hours. The UV-induced erythema was determined photometrically before exposure and after action of the substances.

[2] = test system: Propionibacterium acnes; assay: agar dilution test (MIC/MBC); assay type: cell-based; details: Cutibacterium acnes
Experimental: The old man's beard CO2 extract (Usnea barbata L.) was tested in the concentrations 1:10, 1:50, 1:100, 1:500 and 1:1000 in the agar dilution test for a number of aerobic and anaerobic bacteria. The pure substance usnic acid was tested in concentrations of 128/64/32/16/8/4/2/1/0.5/0.25 and 0.125 μg/ml. The MIC (minimum inhibitory concentration) is defined as >90% inhibition of bacterial growth after 24 h. The MBC (minimum bactericidal concentration) is defined as >90% inhibition of the growth at 48 h.

[3] = test system: Pityrosporon ovale; assay: oil submersion test on Sabouraud agar with scales of patients with seborrhoeal eczema; assay type: cell-based; details: 1% in olive oil; incubation for 4 days
Experimental: In addition, the efficacy against pityrosporon of 1% Usnea extract in olive oil in comparison with 1% amphotericin was investigated. For this purpose, scales of patients with seborrhoeal eczema were applied to Sabouraud agar and covered with a layer of the oil. After incubation for 4 days in an incubator, the number of colony-forming units was counted.

CCOC(=O)O[C@]1(C(=O)COC(=O)CC)CC[C@H]2[C@@H]3CCC4=CC(=O)C=C[C@]4(C)[C@H]3[C@@H](O)C[C@@]21C [Prednicarbate]
UV-induced inflammation (erythema, photometric) [1]: inhibit the UV-induced inflammation

CC(=O)c1c(O)c(C)c(O)c2c1OC1=CC(=O)C(C(C)=O)C(=O)C12C (centres unmarked) [Usnic acid, usnic acid]
MIC ([2]; >90% inhibition of bacterial growth after 24 h): 1 µg/mL (≈ 2.9 µM) | MBC ([2]; >90% inhibition of the growth at 48 h): 4 µg/mL (≈ 11.6 µM)

C[C@@H]1[C@H](O)[C@@H](C)/C=C/C=C/C=C/C=C/C=C/C=C/C=C/[C@H](O[C@@H]2O[C@H](C)[C@@H](O)[C@H](N)[C@@H]2O)C[C@@H]2O[C@](O)(C[C@@H](O)C[C@@H](O)[C@H](O)CC[C@@H](O)C[C@@H](O)CC(=O)O[C@H]1C)C[C@H](O)[C@H]2C(=O)O [1% Amphotericin in olive oil, amphotericin]
growth of the pityrosporon yeast fungi [3]: inhibited completely | number of colony-forming units [3]: 1 CFU
